This is an account of results in patent US12129493B2, “Host cells and methods useful for producing unnatural terpenoids using a novel artificial metalloenzyme” (The Regents of the University of California, priority 2020, dated 2024).

Numbering of substitutions follows the chain as printed. In names and notes the source's numbering stands. Several values for one entry are separate records, joined by “and”; a condition that tells them apart may be missing. Equal entries are not always repeated. Entries after “also recorded” stand apart in the source; their conditions may differ.

The test system of one data set is BL21(DE3) cells. Briefly: Cytotoxicity of Ir(Me)MPIX and cyclopropyl limonene, cell growth by OD600. The conditions noted are these: for inhibition of cell growth: concentration range relevant for the study. On the procedure: 10. […] Individual colonies from freshly transformed plates (incubated at 30° C.) were inoculated into 2 mL M9-rich media supplemented with appropriate antibiotics. A 1:100 dilution of overnight cultures into 300 μL M9-rich media was performed in a 48-well plate. […] The OD600 values were recorded by a plate reader (F200 or F200pro, Tecan) set at 30° C.
Cyclopropyl limonene; BL21(DE3) cells co-transformed with pHug21 (coding for HUG system) and pJHA110 (coding for CYP119 mutant) were grown and cultivated as described above. The stock solution of cyclopropyl limonene in ethanol was added to the cell culture to give final concentration of 0, 0.2, 1, 5, 25 mg/L cyclopropyl limonene and 1% (v/v) ethanol. The OD600 values were recorded by a plate reader (F200 or F200pro, Tecan) set at 30° C.

The subject of the next data set is E. coli BL21(DE3) cells. Briefly: Evaluation of the effect of Ir(Me)MPIX and cyclopropyl limonene on cell growth (OD600). Format: cell-based, Escherichia coli. The conditions noted are these: 30° C.
Data set [1] has as its target T1, Sulfolobus CYP119 (cytochrome P450 119, parent sequence SEQ ID NO: 1), apo form, CYP119-141 mutant (C317G, T213G, V254L, L155W) (Sulfolobus acidocaldarius, UniProt Q55080, C317G/L155W/T213G/V254L).
T1 construct: made in house
The data set can be described thus: Binding affinity of apo-CYP119 towards Ir(Me)MPIX/hemin (intrinsic fluorescence quenching, Benesi-Hildebrand). Further details: species or system Sulfolobus solfataricus. The conditions noted are these: excitation 294 nm, 10 mM TRIS buffer pH 8.0, Benesi-Hildebrand analysis.
Description: Intrinsic fluorescence quenching;^8 Modified from a reported procedure, aliquots (10 μL) of metalloporphyrin stock solutions (in DMSO) were added to a solution containing 0.15 mg/L apo-CYP119 (CYP119-141 mutant, 800 μL, 10 mM TRIS buffer, pH 8.0). This addition caused the concentration of the protein to decrease from its initial value to a final concentration of 0.148 mg/L in the process. After each addition, the emission spectrum of CYP119 was recorded upon excitation at 294 nm. In quenching experiments, the concentration of the chromophore (CYP119 or porphyrin) was kept sufficiently low (<0.15) to ensure uniform light absorption throughout the sample and reduced inner filter effects. The fluorescence emission intensity was calculated as the integral of the emission spectrum in the recorded wavelength range (305-450 nm).

Data set [2] deals with E. coli cells expressing limonene biosynthetic pathway. Briefly: Effect of Ir(Me)MPIX addition on limonene titer. Format: cell-based. The conditions noted are these: 0.1 μM Ir(Me)MPIX in DMSO. On the procedure: 6. Limonene biosynthesis. Chemically competent BL21(DE3) (NEB) cells were transformed with a plasmid coding for MEV pathway enzymes to produce limonene from glucose in E. coli (pJBEI6410 or pJBEI6409). […] The cultures were grown overnight at 30° C. and 200 rpm for 18 h. In a 50 mL glass culture tube, 10 mL of M9-rich media was inoculated with 100 μL of overnight starter culture and incubated at 37° C. and 200 rpm to an OD600 of ˜1. Unless otherwise indicated, the cultures were then induced by adding 50 μM IPTG (final concentration), and 10% (v/v) dodecane was added to trap the limonene produced. Upon induction, the temperature was reduced to 30° C. and expressions were allowed to continue for 24 h at 200 rpm. An aliquot of the 100 μL dodecane overlay was diluted with 900 μL ethyl acetate containing 40 mg/L beta-pinene (beta-pinene as internal standard) and analyzed by GC-MS.

For data set [3], the system named is E. coli cells expressing the artificial biosynthetic pathway (pJBEI6410+pJHA170). The data set can be described thus: Cell viability test with CFU (colony forming units) assay. The format is cell-based. The conditions noted are these: high concentration, 4 h exposure. The method, then:
9. Cell viability test with CFU (colony forming units) assay. E. coli cells co-transformed with pJBEI6410 and pJHA170 were grown as described in 7, except for the following steps. […] A portion of cell culture (1.4 mL) was transferred into Falcon 14 mL round-bottom tube. […] For the control group, only sterile ddH2O (1%, v/v) was added. The cultures were further incubated at 30° C., 200 rpm for 4 h. Then the cultures were diluted 10^5 times. Aliquots of diluted cell suspension (50 μL) were plated onto LB agar plates. The plates were incubated at 30° C. for 24 h. The colonies grown on the plates were manually counted and the percentage of viable cells in each group was calculated by normalizing the number of colonies grown in the control group as 100%.

The target in the next data set is apo-myoglobin. The conditions noted are these: literature; cited from earlier work.
A further data set addresses apo-ascorbate peroxidase. The conditions noted are these: literature; cited from earlier work.
The format of data set [4] is cell-based, E. coli. The conditions noted are these: whole cells harboring Ir-CYP119 mutants, average of three biological repeats.
Data set [5] is described as follows: Cyclopropanation of (−)-limonene by Ir-CYP119 reconstituted in vitro or free cofactor. The format is biochemical. The conditions noted are these: Ir-CYP119 mutants reconstituted in vitro, average of two replicates. The method, then: 12. […] The buffer of the protein solution was subsequently exchanged to TRIS buffer (20 mM, pH 7.5) using a NAP-10 column (GE Healthcare). […] To the reaction vial, 10 μL of 0.125 M stock solution of limonene in EtOH was added. The reaction vial was sealed with a cap containing a septum. The syringes of a multichannel syringe pump were loaded with a stock solution of EDA in DMSO (20 μL of 0.25 M solution of EDA in DMSO), and the EDA solution was added to the reaction over 1.5 h. The reaction was quenched upon the conclusion of the addition of EDA by adding 100 μL of 2 N HCl and extracted with 1 mL dodecane stock solution (0.1% (v/v) in ethyl acetate). The organic layer was then transferred to a separate vial for GC analysis.

For data set [6], the target named is T2, CYP119 (Sulfolobus acidocaldarius, UniProt Q55080, C317G/L155W/T213G/V254L).
T2 construct: made in house; host or cells: E. coli BL21(DE3), co-transformed with pHug21 (HUG) or pBbS5a (RFP control)
T2 sequence (Q55080 whole entry L155W/T213G/V254L/C317G): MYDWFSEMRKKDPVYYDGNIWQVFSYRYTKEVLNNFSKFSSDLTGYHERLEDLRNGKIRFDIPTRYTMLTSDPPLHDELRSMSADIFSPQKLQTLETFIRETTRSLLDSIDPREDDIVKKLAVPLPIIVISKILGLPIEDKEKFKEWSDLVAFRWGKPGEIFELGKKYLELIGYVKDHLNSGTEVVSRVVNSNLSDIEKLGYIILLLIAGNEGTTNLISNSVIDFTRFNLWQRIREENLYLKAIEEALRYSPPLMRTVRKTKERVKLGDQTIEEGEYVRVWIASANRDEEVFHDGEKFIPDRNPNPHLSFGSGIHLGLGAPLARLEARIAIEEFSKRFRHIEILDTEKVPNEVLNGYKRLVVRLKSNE
The data set can be described thus: ICP-MS measurement of CYP119 purified from E. coli co-expressing heme transport system (100 mL culture). Format: cell-based. The conditions noted are these: 0.1 μM Ir(Me)MPIX, single replicates. The method, then: (b) Protein purification (100 mL culture); A plasmid containing CYP119 mutant (pJHA110) was co-transformed with a plasmid (pHug21) encoding the heme transport system HUG, or an empty vector backbone (pBbS5a) into chemically competent BL21(DE3) (NEB) cells. Individual colonies from freshly transformed plates were inoculated into 4 mL M9-rich media supplemented with 100 μg/mL carbenicillin and 25 μg/mL kanamycin. The cultures were grown overnight at 37° C. and 200 rpm. In a 500 mL Erlenmeyer flask, 100 mL of M9-rich media was inoculated with 1 mL of overnight starter culture and incubated at 37° C. and 200 rpm to an OD600 of 0.7˜0.8. […] Upon induction, the incubation temperature was reduced to 30° C., and expressions were allowed to continue for 18 h at 200 rpm. Cells were harvested by centrifugation and stored at −20° C. until purification.
(§1) Cell debris was removed by centrifugation (10000 rpm, 45 min, 4° C.). The supernatants were incubated with Ni-NTA agarose (50% suspension, 4 mL) on a tube rotator (15 min, 4° C., 20 rpm) and poured into glass frits (coarse, 50 mL). The resin was washed (3×35 mL) with Ni-NTA lysis buffer (50 mM NaPi, 250 mM NaCl, 10 mM Imidazole, pH 8.0). The desired protein was eluded with 15 mL Ni-NTA elusion buffer (50 mM NaPi, 250 mM NaCl, 250 mM Imidazole, pH 8.0) and concentrated to 1 mL with a 30 kDa molecular weight cut-off Amicon centrifugal filtration device (EMD Millipore).
(§2) (c) ICP-MS analysis; Cone. HNO3 was added to each sample (1 mL) in to make a final concentration of 4% (v/v). After microwave digestion (140° C., 30 min), the samples were analyzed by ICP-MS (Elemental Analysis Core, Oregon Health & Science University).

For data set [7], the target named is T2, CYP119. Briefly: Fe and Ir content of CYP119 purified from HUG/CYP119 E. coli (700 mL culture). Format: cell-based. The conditions noted are these: 0.2 mg/L Ir(Me)MPIX. On the procedure: […] Individual colonies from freshly transformed plates were inoculated into 4 mL M9-rich media supplemented with 100 μg/mL carbenicillin and 25 μg/mL kanamycin. The cultures were grown overnight at 37° C. and 200 rpm. In a 500 mL Erlenmeyer flask, 100 mL of M9-rich media was inoculated with 1 mL of overnight starter culture and incubated at 37° C. and 200 rpm to an OD600 of 0.7˜0.8. […] Upon induction, the incubation temperature was reduced to 30° C., and expressions were allowed to continue for 18 h at 200 rpm. Cells were harvested by centrifugation and stored at −20° C. until purification.
as §1, §2

Where [8] appears, read: 0, 0.1, 1, 10 μM Ir(Me)MPIX, M9-rich media.

T1 sequence (Q55080 whole entry L155W/T213G/V254L/C317G): as above

As for `CCOC(=O)[C@H]1C[C@@]1(C)[C@@H]1CC=C(C)CC1` [cyclopropyl limonene], the “effect on cell growth” value in the data set on BL21(DE3) cells (BL21(DE3) with pHug21 and pJHA110, 0-25 mg/L) is “little effect”. In the data set with BL21(DE3) cells, the “inhibition of cell growth” value is listed as “did not inhibit cell growth”. For the same molecule, the “effect on growth of BL21(DE3) cells co-transformed with pHug21 and pJHA110 (encoding CYP119)” value with E. coli BL21(DE3) cells (0, 0.2, 1, 5, 25 mg/L cyclopropyl limonene, 1% (v/v) ethanol) is “little effect on the growth”.
Take `CCC1=C(C)c2cc3[n-]c(cc4[n-]c(cc5nc(cc1n2)C(C)=C5CC)c(C)c4CCC(=O)O)c(CCC(=O)O)c3C.[CH3-].[Ir+3]` [Ir(Me)MPIX]: in data set [1], the Kb is 4.2(0.3) × 10^5 M^−1. Besides, the Kd in [1] (read-out: Kd) was 2400 nM. Also, the “effect on cell growth” value in the data set with BL21(DE3) cells (BL21(DE3) expressing the HUG system, 0-10 μM) was “little effect”. In addition, in the data set on BL21(DE3) cells (BL21(DE3) with empty vector pBbS5K, 0-10 μM), the “effect on cell growth” value is given as “little effect”. Further, in the data set with BL21(DE3) cells, the “inhibition of cell growth” value is given as “did not inhibit cell growth”. In addition, the “effect on limonene titer” value in [2] is listed as “unaffected; also recorded: little impact”. Also, in the data set on E. coli BL21(DE3) cells (setting [8]), the “effect on growth of BL21(DE3) cells expressing the HUG system” value is “little effect on the growth” and the “effect on growth of BL21(DE3) cells transformed with an empty vector pBbS5K” value was “little effect on the growth”.
Take `CCOC(=O)C=[N+]=[N-]` [EDA, ethyl diazoacetate]: the “toxicity to E. coli cells (viable cells)” value in data set [3] was “toxic”.
As for `C=CC1=C(C)c2cc3[n-]c(cc4[n-]c(cc5nc(cc1n2)C(C)=C5C=C)c(C)c4CCC(=O)O)c(CCC(=O)O)c3C.[Cl-].[Fe+3]` [Fe(Cl)PPIX], the Kd is 600 nM on apo-myoglobin and 190 nM at apo-ascorbate peroxidase.

B1: P/256W: CYP119 mutant (C317G, T213G, V254L, L155W, R256W) (protein, UniProt Q55080 1-368, looked up, variant C317G T213G V254L L155W R256W)
Cytochrome P450 119: MYDWFSEMRKKDPVYYDGNIWQVFSYRYTKEVLNNFSKFSSDLTGYHERLEDLRNGKIRFDIPTRYTMLTSDPPLHDELRSMSADIFSPQKLQTLETFIRETTRSLLDSIDPREDDIVKKLAVPLPIIVISKILGLPIEDKEKFKEWSDLVAFRWGKPGEIFELGKKYLELIGYVKDHLNSGTEVVSRVVNSNLSDIEKLGYIILLLIAGNEGTTNLISNSVIDFTRFNLWQRIREENLYLKAIEEALRYSPPLMWTVRKTKERVKLGDQTIEEGEYVRVWIASANRDEEVFHDGEKFIPDRNPNPHLSFGSGIHLGLGAPLARLEARIAIEEFSKRFRHIEILDTEKVPNEVLNGYKRLVVRLKSNE
With B1, in data set [4], the “in vivo diastereoselectivity (P2/Ptotal)” value was 63%. In [5], the “in vitro diastereoselectivity (P2/Ptotal)” value was 48%.

B2: ChuA/Ton/CYP119: CYP119 purified from E. coli transformed with pJHA184 (ChuA and Ton complex) and pJHA110 (protein, UniProt Q55080 1-368, looked up)
Cytochrome P450 119: B1 Cytochrome P450 119 with W155L, G213T, L254V, W256R, G317C
For the molecule B2, in the data set with CYP119 [6], the “Ir, total amount present in the purified protein” value (shortened to “Ir, total amount present”) was 0.83 nmol and 0.69 nmol and 0.87 nmol.

B3: RFP/CYP119: CYP119 purified from E. coli transformed with pBbS5a (RFP control) and pJHA110 (protein, UniProt Q55080 1-368, looked up)
Cytochrome P450 119: B1 Cytochrome P450 119 with W155L, G213T, L254V, W256R, G317C
In the case of B3, in the data set with CYP119 [6], the “Ir, total amount present” value was 0.66 nmol and 0.59 nmol and 0.62 nmol.

B4: P (C317G, T213G, V254L, L155W): parent CYP119 mutant (C317G, T213G, V254L, L155W) (protein)
chain: B1 Cytochrome P450 119 with W256R
Take B4: the “in vivo diastereoselectivity (P2/Ptotal)” value in data set [4] was 53%. For the same molecule, the “in vitro diastereoselectivity (P2/Ptotal)” value in [5] came to 20%.

B5: HUG/CYP119: CYP119 purified from E. coli transformed with pHug21 (HUG system) and pJHA110 (protein, UniProt Q55080 1-368, looked up)
Cytochrome P450 119: B1 Cytochrome P450 119 with W155L, G213T, L254V, W256R, G317C
As to B5, in the data set with CYP119 [7], the “Fe, total amount present in the purified protein” value was 0.044 µmol and 0.031 µmol and 0.035 µmol; the “Fe:CYP119 (molar ratio)” value was 12.4% and 8.5% and 9.1%; the “Ir, total amount present” value was 0.039 µmol and 0.040 µmol and 0.041 µmol; the “Ir:CYP119 (molar ratio)” value is 11.0% and 11.1% and 10.8%. Moreover, the “Ir, total amount present” value in the data set with CYP119 [6] is 3.15 nmol and 3.66 nmol and 3.08 nmol.
